Laboratory results published in BigSolDB 2.1.

CC(=O)OC(OC(C)=O)c1ccc([N+](=O)[O-])o1
solubility (mole fraction) (in 1,4-dioxane, 278.15 K): 0.0821 | solubility (mole fraction) (in 1,4-dioxane, 283.15 K): 0.0954 | solubility (mole fraction) (in 1,4-dioxane, 288.15 K): 0.109 | solubility (mole fraction) (in 1,4-dioxane, 293.15 K): 0.131 | solubility (mole fraction) (in 1,4-dioxane, 298.15 K): 0.146 | solubility (mole fraction) (in 1,4-dioxane, 303.15 K): 0.166 | solubility (mole fraction) (in 1,4-dioxane, 308.15 K): 0.188 | solubility (mole fraction) (in 1,4-dioxane, 313.15 K): 0.214 | solubility (mole fraction) (in 1,4-dioxane, 318.15 K): 0.237 | solubility (mole fraction) (in 1,4-dioxane, 323.15 K): 0.267 | solubility (mole fraction) (in DMF, 278.15 K): 0.161 | solubility (mole fraction) (in DMF, 283.15 K): 0.174 | solubility (mole fraction) (in DMF, 288.15 K): 0.192 | solubility (mole fraction) (in DMF, 293.15 K): 0.209 | solubility (mole fraction) (in DMF, 298.15 K): 0.227 | solubility (mole fraction) (in DMF, 303.15 K): 0.248 | solubility (mole fraction) (in DMF, 308.15 K): 0.271 | solubility (mole fraction) (in DMF, 313.15 K): 0.296 | solubility (mole fraction) (in DMF, 318.15 K): 0.319 | solubility (mole fraction) (in DMF, 323.15 K): 0.351 | solubility (mole fraction) (in THF, 278.15 K): 0.121 | solubility (mole fraction) (in THF, 283.15 K): 0.146 | solubility (mole fraction) (in THF, 288.15 K): 0.181 | solubility (mole fraction) (in THF, 293.15 K): 0.217 | solubility (mole fraction) (in THF, 298.15 K): 0.256 | solubility (mole fraction) (in THF, 303.15 K): 0.298 | solubility (mole fraction) (in THF, 308.15 K): 0.341 | solubility (mole fraction) (in THF, 313.15 K): 0.385 | solubility (mole fraction) (in THF, 318.15 K): 0.434 | solubility (mole fraction) (in THF, 323.15 K): 0.488 | solubility (mole fraction) (in acetone, 278.15 K): 0.0864 | solubility (mole fraction) (in acetone, 283.15 K): 0.108 | solubility (mole fraction) (in acetone, 288.15 K): 0.127 | solubility (mole fraction) (in acetone, 293.15 K): 0.156 | solubility (mole fraction) (in acetone, 298.15 K): 0.182 | solubility (mole fraction) (in acetone, 303.15 K): 0.214 | solubility (mole fraction) (in acetone, 308.15 K): 0.249 | solubility (mole fraction) (in acetone, 313.15 K): 0.291 | solubility (mole fraction) (in acetone, 318.15 K): 0.33 | solubility (mole fraction) (in acetone, 323.15 K): 0.379 | solubility (mole fraction) (in acetonitrile, 278.15 K): 0.0016 | solubility (mole fraction) (in acetonitrile, 283.15 K): 0.002 | solubility (mole fraction) (in acetonitrile, 288.15 K): 0.0028 | solubility (mole fraction) (in acetonitrile, 293.15 K): 0.0038 | solubility (mole fraction) (in acetonitrile, 298.15 K): 0.0052 | solubility (mole fraction) (in acetonitrile, 303.15 K): 0.0069 | solubility (mole fraction) (in acetonitrile, 308.15 K): 0.0093 | solubility (mole fraction) (in acetonitrile, 313.15 K): 0.0126 | solubility (mole fraction) (in acetonitrile, 318.15 K): 0.0167 | solubility (mole fraction) (in acetonitrile, 323.15 K): 0.0215 | solubility (mole fraction) (in ethyl acetate, 278.15 K): 0.002 | solubility (mole fraction) (in ethyl acetate, 283.15 K): 0.0031 | solubility (mole fraction) (in ethyl acetate, 288.15 K): 0.0048 | solubility (mole fraction) (in ethyl acetate, 293.15 K): 0.0068 | solubility (mole fraction) (in ethyl acetate, 298.15 K): 0.0101 | solubility (mole fraction) (in ethyl acetate, 303.15 K): 0.0143 | solubility (mole fraction) (in ethyl acetate, 308.15 K): 0.02 | solubility (mole fraction) (in ethyl acetate, 313.15 K): 0.0283 | solubility (mole fraction) (in ethyl acetate, 318.15 K): 0.0405 | solubility (mole fraction) (in ethyl acetate, 323.15 K): 0.0548 | solubility (mole fraction) (in methanol, 278.15 K): 0.0778 | solubility (mole fraction) (in methanol, 283.15 K): 0.0834 | solubility (mole fraction) (in methanol, 288.15 K): 0.0898 | solubility (mole fraction) (in methanol, 293.15 K): 0.0995 | solubility (mole fraction) (in methanol, 298.15 K): 0.108 | solubility (mole fraction) (in methanol, 303.15 K): 0.118 | solubility (mole fraction) (in methanol, 308.15 K): 0.129 | solubility (mole fraction) (in methanol, 313.15 K): 0.143 | solubility (mole fraction) (in methanol, 318.15 K): 0.155 | solubility (mole fraction) (in methanol, 323.15 K): 0.173 | solubility (mole fraction) (in n-hexane, 278.15 K): 0.0285 | solubility (mole fraction) (in n-hexane, 283.15 K): 0.0358 | solubility (mole fraction) (in n-hexane, 288.15 K): 0.0458 | solubility (mole fraction) (in n-hexane, 293.15 K): 0.0562 | solubility (mole fraction) (in n-hexane, 298.15 K): 0.0721 | solubility (mole fraction) (in n-hexane, 303.15 K): 0.0883 | solubility (mole fraction) (in n-hexane, 308.15 K): 0.109 | solubility (mole fraction) (in n-hexane, 313.15 K): 0.133 | solubility (mole fraction) (in n-hexane, 318.15 K): 0.162 | solubility (mole fraction) (in n-hexane, 323.15 K): 0.196 | solubility (mole fraction) (in n-propanol, 278.15 K): 0.0435 | solubility (mole fraction) (in n-propanol, 283.15 K): 0.0474 | solubility (mole fraction) (in n-propanol, 288.15 K): 0.0513 | solubility (mole fraction) (in n-propanol, 293.15 K): 0.0571 | solubility (mole fraction) (in n-propanol, 298.15 K): 0.0625 | solubility (mole fraction) (in n-propanol, 303.15 K): 0.0687 | solubility (mole fraction) (in n-propanol, 308.15 K): 0.0761 | solubility (mole fraction) (in n-propanol, 313.15 K): 0.0843 | solubility (mole fraction) (in n-propanol, 318.15 K): 0.0924 | solubility (mole fraction) (in n-propanol, 323.15 K): 0.104 | solubility (mole fraction) (in toluene, 278.15 K): 0.141 | solubility (mole fraction) (in toluene, 283.15 K): 0.154 | solubility (mole fraction) (in toluene, 288.15 K): 0.171 | solubility (mole fraction) (in toluene, 293.15 K): 0.192 | solubility (mole fraction) (in toluene, 298.15 K): 0.211 | solubility (mole fraction) (in toluene, 303.15 K): 0.239 | solubility (mole fraction) (in toluene, 308.15 K): 0.267 | solubility (mole fraction) (in toluene, 313.15 K): 0.293 | solubility (mole fraction) (in toluene, 318.15 K): 0.33 | solubility (mole fraction) (in toluene, 323.15 K): 0.373
